In patent US12458688B2, “Epitopes” (Scancell Limited, priority 2018, dated 2025):
Where no end group is shown, it is not given here. [ ]: non-standard residue; d: D form. hCit = NC(=O)NCCCC[C@H](N)C(=O)O

Assays:
[1] = test system: B16 HHDII/DP4 tumour cells; assay: Tumour therapy, B16 HHDII/DP4 tumour in HHDII/DP4 mice; type: in vivo, mouse; details: peptide with CpG/MPLA days 4, 11, 18
Excerpt: (§1) To determine if the epitopes that stimulate T cell responses are presented on MHC-II within the tumour environment, our homocitrullinated peptides were checked for tumour therapy in B16 tumour models. Mice were implanted with tumour cells on day 1 and then immunised with peptides and CpG/MPLA on days 4, 11 and 18.
HHDII/DP4 mice were challenged with B16 HHDII/DP4 tumour cells and then immunised with ALDOA homocitrulline peptides (FIG. 19c).
Next, we aimed to determine if these cell populations play a role in carbamylation in the tumour microenvironment and are therefore necessary for the anti-tumour effect. HHDII/DP4 mice were implanted with tumour and then immunised with ALDOA homocitrulline peptides. Mice where then either untreated or treated with Ly6G or Ly6C depletion antibodies to remove either the neutrophils/G-MDSCs or monocytes/M-MDSCs, respectively Peptide vaccination was associated with 100% survival whereas peptide and Ly6G+antibody was associated with a slight but significant reduction in the anti-tumour effect (80% survival, p=0.04) (FIG. 23a).
Next, antibodies were used to deplete the Ly6C+ population (FIG. 23b). Ly6C depletion alone increased survival when compared to control (20% survival, p=0.0012). For this study vaccination alone gave 80% survival (p<0.0001).

[2] = test system: B16HHDII/iDP4 tumour cells; assay: Tumour therapy, B16HHDII/iDP4 tumour in HHDII/DP4 mice; type: in vivo, mouse; details: peptide with CpG/MPLA
Procedure: For tumour challenge experiments, mice were challenged with B16F1 cells s.c. on the right flank 3 days before primary immunisation (unless stated otherwise) and subsequently immunised as above. Tumour implants were carried out at dose of 2.5×10^4 cells/mouse for B16F1, 2.5×10^4 cells/mouse for B16F1 DR4, 4×10^5 cells/mouse for B16F1 HHDII/DP4, 5×10^5 cells/mouse for B16 HHDII/DR1, 1×10^5 cells/mouse for B16F1 HHDII/inducibleDP4, 5×10^4 cells/mouse for B16F1 inducible DR4. For studies involving depletion antibodies, 250 μg anti-mouse Ly6C antibody (clone Monts, BioXcell) was administered i.p. on days 8, 10, 12, 15, 17 and 19. 400 μg anti-mouse Ly6G antibody (clone 1A8, Biolegend) was administered i.p. on day 8 followed by 250 μg on days 11, 15 and 18. Anti-human CD4 antibody (clone OKT4, BioXcell) or anti-mouse CD8 antibody (clone 2.43, BioXcell) were administered at 500 μg dose on day 4 followed by 300 μg dose on days 8 and 11. Tumour growth was monitored twice weekly and mice were humanely euthanised once tumour reached ≥15 mm in diameter.
To provide further evidence for the role of CD4 T cell responses in tumour therapy HHDII/DP4 mice were implanted with B16HHDII/iDP4 tumour cells on day 1 and then immunised with peptides and CpG/MPLA on days 4, 8 and 11. Concurrent with peptide immunisation mice were also treated with CD4 or CD8 depleting antibody and tumour growth monitored. […] To show whether cyanate/isocyanic acid can cross cell membranes B16F1 melanoma cell line was cultured in vitro in the presence or absence of potassium cyanate which is in dynamic equilibrium with isocyanic acid. As a positive control lysates were also produced from in vitro cultured B16F1 cells and then treated with or without KCNO.

[3] = test system: IFNγ-inducible B16 DR4 tumour; assay: Tumour therapy, IFNγ-inducible B16 DR4 tumour in HLA-DR4 mice; type: in vivo, mouse; details: peptide with CpG/MPLA
Excerpt: To mimic the naturally occurring tumour, we engineered B16F1 cells to express HLA-DR4 under control of mouse IFNγ-inducible promoter. […] HLA-DR4 mice were then implanted with this IFNγ-inducible B16 DR4 tumour followed by immunisation with vimentin 116-135Hcit peptide (FIG. 19e).

[4] = test system: tumour cells that were not able to express HLA-DR4; assay: Tumour therapy, B16F1 lacking DR4 in HLA-DR4 mice; type: in vivo, mouse; details: tumour without HLA-DR4
Excerpt: (§2) This is also true in the ALDOA immunised mice.

[5] = test system: splenocytes from immunised mice; assay: Ex vivo IL-10 ELISpot after peptide immunisation; details: mouse, in vivo
Procedure: (§3) C57BL/6 mice (Charles River, UK), HLA-DR4 mice (Model #4149, Taconic, USA), HLA-A2/DR1 (HHDII/DR1, Pasteur Institute), HLA-A2.1+/+HLA-DP4+/+hCD4+/+ (HLA-HHDII/DP4) transgenic mice (EM: 02221, European Mouse Mutant Archive) described in patent WO2013/017545 A1 (EMMA repository, France) were used, aged between 8 and 12 weeks. Peptides were dissolved in PBS to 1 mg/ml and then emulsified (a series of dilutions) with CpG ODN 1826 and MPLA 6 μg/mouse of each (Invivogen, UK). Peptides (25 μg/mouse) were injected subcutaneously at the base of the tail. Mice were immunised at days 1, 7 and 14 for peptide immunisation. Spleens were removed for analysis at day 21 unless stated otherwise.
(§4) ELISpot assays were performed using murine IFNγ, IL-17 and IL-10 capture and detection reagents according to the manufacturer's instructions (Mabtech, Sweden). In brief, anti-IFNγ, IL-17 and IL-10 specific antibodies were coated onto wells of 96-well Immobilin-P plate. […] After incubation, captured IFNγ, IL-10 and IL-17 were detected by biotinylated anti-IFNγ, IL-10 and IL-17 antibodies and developed with a streptavidin alkaline phosphatase and chromogenic substrate. […] Spots were analysed and counted using an automated plate reader (Cellular Technologies Ltd).

[6] = test system: B16F1 HHDII cells that cannot express DR1; assay: Tumour therapy, B16F1 HHDII lacking DR1 in HHDII/DR1 mice; type: in vivo, mouse; details: tumour without DR1
Excerpt: as §2

[7] = test system: B16F1 DR4 tumours; assay: Tumour therapy, B16F1 DR4 tumour in DR4 mice; type: in vivo, mouse; details: peptide with CpG/MPLA days 4, 11, 18
Excerpt: as §1
HHDII/DR1 (FIG. 19a) or DR4 (FIG. 19b) transgenic mice were challenged with B16F1 HHDII/DR1 or B16F1 DR4 tumours respectively prior to immunisation with vimentin 116-135Hcit peptide and tumour growth and survival were monitored.

[8] = test system: splenocytes from immunised mice; assay: Ex vivo IL-17 ELISpot after peptide immunisation; details: mouse, in vivo
Procedure: as §3, §4

[9] = test system: C57BI/6 mice; assay: Ex vivo IFNγ ELISpot after peptide immunisation, C57Bl/6 mice; type: in vivo, mouse
Procedure: as §3, §4
Significant IFNγ responses were detected to peptide vimentin 116-135 Hcit. […]

IGGVILFHETLYQ-hcit-ADDGRP (IGGVILFHETLYQ[hCit]ADDGRP) [Aldolase A 74-93 Hcit]
survival [1]: 90%

LREYQELMNV-hcit-LALDIEI (LREYQELMNV[hCit]LALDIEI) [Cyk8 371-388 Hcit]
tumour growth / survival vs control [2]: Significant prevention of tumour growth

NYID-Hcit-VRFLEQQN-Hcit-ILLAEL (NYID[hCit]VRFLEQQN[hCit]ILLAEL) [Vimentin 116-135 Hcit]
survival [3]: 40%
survival rate [4]: 20%
IL-10 ELISpot response [5]: no production
survival vs control [6]: no survival advantage
overall survival [7]: 70%
IL-17 ELISpot response [8]: no production
IFNγ ELISpot response [9]: no IFNγ responses were observed

hcit-DGADFA-hcit-WRCVL-hcit-IGEH ([hCit]DGADFA[hCit]WRCVL[hCit]IGEH) [Aldolase A 140-157 Hcit]
survival [1]: 60%
